{"source": "paper PMC8178976", "about": "“A biocompatible stapling reaction for in situ generation of constrained peptides” (Chemical Science, 2020)", "key": {"[1]": {"target": "Zika virus NS2B-NS3 protease (ZiPro) (Zika virus, UniProt A0A024B7W1)", "sequence (A0A024B7W1 1503-1679)": "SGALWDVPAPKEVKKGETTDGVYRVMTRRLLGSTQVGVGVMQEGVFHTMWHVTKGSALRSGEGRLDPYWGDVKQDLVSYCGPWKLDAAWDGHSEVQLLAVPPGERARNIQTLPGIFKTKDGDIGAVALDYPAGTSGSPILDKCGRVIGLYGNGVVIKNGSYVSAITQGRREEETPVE", "sequence (A0A024B7W1 1417-1468)": "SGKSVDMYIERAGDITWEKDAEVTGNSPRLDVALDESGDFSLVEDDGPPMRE", "test": "Zika virus NS2B-NS3 protease (ZiPro) inhibition assay", "type": "biochemical", "conditions": "for IC50: purified compounds, dose-response curve assuming Hill slope of 1, 3-parameter fit", "protocol": "Expression and purification of Zika virus protease NS2B-NS3 (ZiPro)\nThe unlinked Zika virus protease NS2B-NS3 construct referred to as bZiPro was obtained from Addgene (plasmid #86846) and expressed and purified exactly as described previously.1 Preparation of samples for ZiPro assay\nLinear peptide samples 1a – 10a were prepared by adding 2 µl of 1a – 10a (10 mM in water) to 198 µl of buffer (10 mM Tris pH 7.5, 1 mM TCEP). The presence of TCEP is important to reduce cyclic disulfides. Stapled peptides 1b – 10b were prepared in situ by adding 2.5 µl of DCP (10 mM in DMSO) and 2 µl of 1a – 10a (10 mM in water) to 195.5 µl of buffer (10 mM Tris pH 7.5, 1 mM TCEP). Samples were incubated overnight, and the presence of stapled peptides 1b – 10b was confirmed by LC-MS (method B).\nZiP ro inhibition assay (Table 2)\nThe assay was conducted in 96-well plates (black U-bottom, Greiner Bio-One) in a total volume of 100 µl using 10 mM Tris pH 8.5, 1 mM CHAPS, 20% glycerol . All measurements were performed in triplicate. Purified peptides 1a – 10a and crude mixtures containing peptides 1b – 10b (prepared as described above) were incubated with ZiPro (0.3 nM) at final concentrations of 1 and 10 µM. The enzymatic reaction was initiated by addition of the substrate Bz-Nle-Ly s-Lys-Arg-A MC (Biosynt a n) at a final concentration of 5 µM.\nFluorescence was monitored by a fluorophotometer (Spectramax M2e plate reader, Molecular Devices) for 5 min at 460 nm using 360 nm excitation. Initial velocities were derived from the linear range, and 100% enzyme activity was defined as the initial velocity of blank wells containing no peptide. Percent inhibition was calculated as a fraction of 100% enzyme activity.\nIn situ stapling of 1b during ZiPro inhibition assay (Figure 3a)\nAll measurements were performed in triplicate. 2 µl of DCP (20 mM in DMSO) and 2 µl of 1a (10 mM in water) were mixed in 196 µl buffer (10 mM Tris pH 7.5, 4 mM TCEP). A blank was prepared by adding 2 µl of DCP (20 mM in DMSO) to 198 µl buffer (10 mM Tris pH 7.5, 4 mM TCEP). After 5 minutes, 10 µl of the reaction and blank mixtures were added to ZiPro (0.3 nM) in assay buffer (10 mM Tris pH 8.5, 1 mM CHAPS, 20% glycerol) to a total volume of 100 µl and incubated at room temperature. After incubation over 5, 20, 45, 90 and 180 minutes, substrate (5 µM) was added, and the enzyme activity was monitored as described above. Percent inhibition was calculated as a fraction of 100% enzyme activity considering each individual set of blanks.\nDetermination of IC50 values of 1a and 1b (Figure 3b-c)\nAll measurements were performed in triplicate using the ZiPro assay described above . Stock solutions (1 mM and 2 mM) of 1a were prepared in buffer (10 mM Tris pH 7.5, 4 m M T C EP) and used immediately. ZiPro inhibition of 1a was measured at 100, 50, 20, 5, 2. 5, 1, and 0. 5\nµM. Stock solutions of purified 1b were made in water. ZiPro inhibition of 1b was measured at 50, 20, 5, 2.5, 1, 0.5, and 0.1 µM. The IC50 values were calculated using GraphPad Prism 8 using a 3 -parameter fit . […]"}, "[2]": {"conditions": "the molecule shown is the open-chain precursor, crosslinker bond, 0.6 mM"}}, "note": "Like-named read-outs stand apart in the source and are kept apart here. Where a SMILES comes first, the peptide text is derived from it. [ ]: non-standard residue; d: D form. Dab = NCC[C@H](N)C(=O)O"}
{"compound": "N=C(N)NCCC[C@H](NC(=O)[C@H](CCCCN)NC(=O)[C@@H](N)CCNC(=O)[C@@H](N)CS)C(=O)N[C@@H](CCCCN)C(=O)N[C@@H](CCNC(=O)[C@@H](N)CS)C(N)=O", "note": "[1a] (H-[Dab](Cys)KRK[Dab](Cys)-NH2)", "values": [{"measurement": "IC50", "setting": "[1]; triplicate", "result": 23, "unit": "µM"}, {"measurement": "ZiPro inhibition (%) 1 μM", "setting": "[1]; purified linear peptides at 1 μM, ZiPro 0.3 nM, substrate 5 μM, 10 mM Tris pH 8.5, 1 mM CHAPS, 20% glycerol, triplicate, n.i. = no inhibition", "result": "n.i."}, {"measurement": "inhibition at 10 µM", "setting": "[1]; purified linear peptides at 10 μM, ZiPro 0.3 nM, substrate Bz-Nle-Lys-Lys-Arg-AMC 5 μM, 10 mM Tris pH 8.5, 1 mM CHAPS, 20% glycerol, fluorescence, triplicate, n.i. = no inhibition", "result": "23 ± 4", "unit": "%"}]}
{"compound": "N=C(N)NCCC[C@@H]1NC(=O)[C@H](CCCCN)NC(=O)[C@@H](N)CCNC(=O)[C@@H]2CSC(=N2)c2cccc(n2)C2=N[C@@H](CS2)C(=O)NCC[C@@H](C(N)=O)NC(=O)[C@H](CCCCN)NC1=O", "note": "[1b]", "values": [{"measurement": "inhibition at 1 µM", "setting": "[1]; in situ stapled peptides (crude mixtures, no purification) after 24 h incubation with DCP, 1 μM, ZiPro 0.3 nM, substrate 5 μM, pH 8.5, triplicate, n.i. = no inhibition", "result": "27 ± 4", "unit": "%"}, {"measurement": "inhibition at 10 µM", "setting": "[1]; in situ stapled peptides (crude mixtures, no purification) after 24 h incubation with DCP, 10 μM, ZiPro 0.3 nM, substrate 5 μM, pH 8.5, triplicate, n.i. = no inhibition", "result": "60 ± 7", "unit": "%"}, {"measurement": "IC50", "setting": "[1]; triplicate", "result": 0.8, "unit": "µM"}]}
{"compound": "N#Cc1cccc(C#N)n1", "note": "[DCP, 2,6-dicyanopyridine, reference compound]", "values": [{"measurement": "effect of DCP on ZiPro activity", "setting": "[1]; concentrations of DCP used in the assay", "result": "no significant effect"}]}
{"compound": "H-Cys-Lys-Arg-Lys-Dab(Cys)-NH2?", "values": [{"measurement": "ring closure, conversion", "setting": "[2]; 25-membered ring, 2,6-dicyanopyridine (2 eq)/TCEP, 10 mM Tris pH 7.5 (aq, MeOH from DCP stock)", "result": 76, "unit": "%"}]}
{"compound": "H-Cys-Lys-Arg-Lys-Dap(Cys)-NH2?", "values": [{"measurement": "ring closure, conversion", "setting": "[2]; 24-membered ring, 2,6-dicyanopyridine (2 eq)/TCEP, 10 mM Tris pH 7.5 (aq, MeOH from DCP stock)", "result": 83, "unit": "%"}]}
{"compound": "H-Cys-Lys-Arg-Lys-Lys(Cys)-NH2?", "values": [{"measurement": "ring closure, conversion", "setting": "[2]; 27-membered ring, 2,6-dicyanopyridine (2 eq)/TCEP, 10 mM Tris pH 7.5 (aq, MeOH from DCP stock)", "result": 83, "unit": "%"}]}
{"compound": "H-Cys-Lys-Arg-Lys-Orn(Cys)-NH2?", "values": [{"measurement": "ring closure, conversion", "setting": "[2]; 26-membered ring, 2,6-dicyanopyridine (2 eq)/TCEP, 10 mM Tris pH 7.5 (aq, MeOH from DCP stock)", "result": 79, "unit": "%"}]}
{"compound": "H-Dys-Lys-Arg-Lys-Dys-NH2", "values": [{"measurement": "ring closure, conversion", "setting": "[2]; 30-membered ring, 2,6-dicyanopyridine (2 eq)/TCEP (6 eq), 10 mM Tris pH 7.5", "result": 93, "unit": "%"}, {"measurement": "ring closure, conversion", "setting": "[2]; 30-membered ring, 2,6-dicyanopyridine (2 eq)/TCEP, 10 mM Tris pH 7.5 (aq, MeOH from DCP stock)", "result": 89, "unit": "%"}, {"measurement": "ring closure, conversion", "setting": "[2]; 30-membered ring, 2,6-dicyanopyridine (8 eq)/TCEP, 10 mM Tris pH 7.5", "result": 60, "unit": "%"}]}
